In publication PMC5626944 (Frontiers in Pharmacology, 2017):
Where two headings read alike, the source gives them in different places.

How the values were obtained:
[1] = tested on: Potassium Channel, ATP-Sensitive; test: NovaScreen competition binding; settings: 1 µM
Description: (§1) Assays included the nicotinic drug [^3H]epibatidine binding to α-bungarotoxin-insensitive nAChRs, the 5-HT3 inhibitor [N-methyl-^3H]GR65630 to mouse receptors in N1E-115 cells, and human receptors expressed in a clonal cell line. Other assays included monoamine oxidase A, monoamine oxidase B, 5-HT transporter, norepinephrine transporter, and dopamine transporter, as well as other. G-protein-coupled receptors, ion channels, enzymes, and transporters.

[2] = tested on: Nicotinic, Neuronal (α-BnTx insensitive); test: NovaScreen competition binding; settings: 1 µM
Description: as §1

Adenosine, A2A (h) = tested on: T1, Adenosine, A2A (h); test: NovaScreen competition binding; design: species or system human; settings: 1 µM
T1 construct: PerkinElmer – Caliper Life Sciences (NovaScreen service)

male Wistar rats = test: Rat intravenous nicotine self-administration; type: in vivo; settings: 0.01, 0.025, 0.05, 0.08 mg/kg ip, 20 min before session; nicotine 0.03 mg/kg/inf
Description: Operant chambers (Med Associates, East Fairfield, VT, United States) were used for food delivery and the intravenous self-administration (IVSA) of nicotine.
For IV catheter implantation, the rats were anesthetized using 1–3% isoflurane inhalation in oxygen and surgically prepared with catheters in the left jugular vein ([Kenny et al., 2008]). The catheter was passed subcutaneously to a polyethylene assembly mounted on the animals’ back. Prior to training, rats were food-restricted so that their body weight was approximately ∼85% that of free-feeding rats. They were then trained to press an active lever for 45 mg food pellets on a fixed ratio 5 time-out 20 s (FR5TO20) schedule of reinforcement. […] Pressing this lever was recorded but was not associated with scheduled consequence. Rats were permitted to respond for food rewards until a reliable response was achieved, defined as >90 pellets earned per 1 h session for three consecutive sessions. Rats were then permitted to respond for food (n = 8) or for nicotine infusions (n = 9) during 1 h daily sessions under the FR5TO20 schedule. […]
Twenty min after injection, rats were placed in the operant boxes and responding for food rewards or nicotine infusions was recorded. […]

[3] = target: T2, High-sensitivity α4(2)β2(3) nAChRs (Mus musculus, UniProt O70174+Q9ERK7); test: 86Rb+ efflux from thalamic and cortical synaptosomes, DhβE-sensitive component; type: biochemical
T2 construct: from tissue; host or cells: WT mouse thalamic and cortical synaptosomes
Procedure: Regions of interest were dissected from fresh mouse brains and homogenized in ice-cold isotonic sucrose (0.32 M), buffered with HEPES (5 mM, pH 7.5). The suspension was centrifuged at 12,000 × g for 20 min.

Endothelin, ET-A (h) = tested on: T3, Endothelin, ET-A (h); test: NovaScreen competition binding; design: species or system human; settings: 1 µM
T3 construct: PerkinElmer – Caliper Life Sciences (NovaScreen service)

Adrenergic, Beta 2 (h) = test: NovaScreen competition binding; design: species or system human; settings: 1 µM
Dopamine, D3 = test: NovaScreen competition binding; settings: 1 µM
[4] = tested on: T4, Phosphodiesterase, PDE5A1 (h); test: NovaScreen enzyme assay; type: biochemical, human; settings: 1 µM
T4 construct: PerkinElmer – Caliper Life Sciences (NovaScreen service)

Serotonin, 5HT5A (h) = test: NovaScreen competition binding; design: species or system human; settings: 1 µM
GABA A, Agonist Site = test: NovaScreen competition binding; settings: 1 µM
Adrenergic, Beta 1 (h) = test: NovaScreen competition binding; design: species or system human; settings: 1 µM
α3β4* nAChRs = target: T5, α3β4* nAChRs (Mus musculus, UniProt Q8R493+Q8R4G9); test: [125I]epibatidine binding, IPN membranes from β2KO mice
T5 construct: from tissue
Procedure: The methods used for preparing brain membranes in hypotonic buffer have been described previously ([Marks et al., 1998], [2007]). Brain membrane preparations were stored as pellets under buffer at -70°C or used immediately. We followed previously published methods for [^125I]epibatidine binding and analysis ([Grady et al., 2010]).

[5] = tested on: T6, GABA A, BDZ, alpha 1 site; test: NovaScreen competition binding; settings: 1 µM
T6 construct: PerkinElmer – Caliper Life Sciences (NovaScreen)

Serotonin, 5HT1A (h) = test: NovaScreen competition binding; design: species or system human; settings: 1 µM
[6] = tested on: T7, Adenosine Transporter (h); test: NovaScreen competition binding; design: species or system human; settings: 1 µM
T7 construct: PerkinElmer – Caliper Life Sciences (NovaScreen service)

Bradykinin, BK2 = tested on: T8, Bradykinin, BK2; test: NovaScreen competition binding; settings: 1 µM
T8 construct: PerkinElmer – Caliper Life Sciences (NovaScreen service)

[7] = tested on: T9, Kinase, Protein, PKCa (h); test: NovaScreen enzyme assay; type: biochemical, human; settings: 1 µM
T9 construct: PerkinElmer – Caliper Life Sciences (NovaScreen service)

α6β2* nAChRs = α6β2* nAChRs (Mus musculus, UniProt Q9ERK7+Q9R0W9); test: [125I]epibatidine binding, striatal membranes from α4KO mice; design: from tissue; host or cells: striatal membranes from α4KO mice
Procedure: Brain membrane preparations were stored as pellets under buffer at -70°C or used immediately.

Histamine, H1 = tested on: T10, Histamine, H1; test: NovaScreen competition binding; settings: 1 µM
T10 construct: PerkinElmer – Caliper Life Sciences (NovaScreen)

Serotonin, 5HT7 (h) = test: NovaScreen competition binding; design: species or system human; settings: 1 µM
Muscarinic, M2 (h) = test: NovaScreen competition binding; design: species or system human; settings: 1 µM
Adenosine, A1 = tested on: T11, Adenosine, A1; test: NovaScreen competition binding; settings: 1 µM
T11 construct: PerkinElmer – Caliper Life Sciences (NovaScreen service)

T2 sequence (Q9ERK7 26-501): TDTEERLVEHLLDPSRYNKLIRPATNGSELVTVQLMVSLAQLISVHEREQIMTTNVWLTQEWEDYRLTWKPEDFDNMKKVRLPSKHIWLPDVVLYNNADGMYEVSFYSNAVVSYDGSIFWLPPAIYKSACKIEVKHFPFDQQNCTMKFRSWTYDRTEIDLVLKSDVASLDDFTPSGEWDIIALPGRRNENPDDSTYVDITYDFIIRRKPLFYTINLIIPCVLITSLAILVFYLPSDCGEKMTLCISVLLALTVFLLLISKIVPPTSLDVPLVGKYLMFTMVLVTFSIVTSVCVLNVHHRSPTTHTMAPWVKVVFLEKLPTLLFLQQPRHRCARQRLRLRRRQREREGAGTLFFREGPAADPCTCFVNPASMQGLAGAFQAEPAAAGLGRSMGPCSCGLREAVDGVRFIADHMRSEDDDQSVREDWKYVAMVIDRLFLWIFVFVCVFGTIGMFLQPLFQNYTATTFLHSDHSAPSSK
T2 sequence (O70174 31-629): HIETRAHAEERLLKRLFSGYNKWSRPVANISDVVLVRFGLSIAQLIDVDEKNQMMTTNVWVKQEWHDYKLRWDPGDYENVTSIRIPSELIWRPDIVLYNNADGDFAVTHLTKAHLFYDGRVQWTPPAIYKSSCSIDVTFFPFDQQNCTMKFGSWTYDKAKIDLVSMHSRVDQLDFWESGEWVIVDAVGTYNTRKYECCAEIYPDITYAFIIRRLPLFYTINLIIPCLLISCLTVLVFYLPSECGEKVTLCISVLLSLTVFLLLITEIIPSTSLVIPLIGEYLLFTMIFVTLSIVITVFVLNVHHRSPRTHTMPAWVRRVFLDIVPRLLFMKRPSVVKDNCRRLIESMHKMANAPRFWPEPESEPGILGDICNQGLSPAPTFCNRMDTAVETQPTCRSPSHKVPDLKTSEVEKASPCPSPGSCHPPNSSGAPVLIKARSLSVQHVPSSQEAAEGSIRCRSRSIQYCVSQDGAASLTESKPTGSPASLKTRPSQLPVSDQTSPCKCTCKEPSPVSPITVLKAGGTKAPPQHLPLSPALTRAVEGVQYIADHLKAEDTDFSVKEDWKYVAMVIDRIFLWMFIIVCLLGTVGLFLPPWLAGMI
α6β2* nAChRs, sequence (Q9ERK7 26-501): as the sequence (Q9ERK7 26-501) above
α6β2* nAChRs, sequence (Q9R0W9 31-494): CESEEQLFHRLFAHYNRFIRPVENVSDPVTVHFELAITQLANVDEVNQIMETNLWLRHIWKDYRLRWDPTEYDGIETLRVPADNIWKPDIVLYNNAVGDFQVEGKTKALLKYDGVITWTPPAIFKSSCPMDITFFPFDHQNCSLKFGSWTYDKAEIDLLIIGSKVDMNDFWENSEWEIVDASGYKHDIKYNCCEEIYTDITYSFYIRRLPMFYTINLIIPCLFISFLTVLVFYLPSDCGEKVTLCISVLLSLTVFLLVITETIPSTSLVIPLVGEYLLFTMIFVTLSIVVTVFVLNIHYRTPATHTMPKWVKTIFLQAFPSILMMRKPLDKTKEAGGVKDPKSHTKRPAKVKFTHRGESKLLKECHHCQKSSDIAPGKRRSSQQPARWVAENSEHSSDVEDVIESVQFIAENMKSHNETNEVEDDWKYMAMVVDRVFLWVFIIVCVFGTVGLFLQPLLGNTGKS
T5 sequence (Q8R4G9 26-499): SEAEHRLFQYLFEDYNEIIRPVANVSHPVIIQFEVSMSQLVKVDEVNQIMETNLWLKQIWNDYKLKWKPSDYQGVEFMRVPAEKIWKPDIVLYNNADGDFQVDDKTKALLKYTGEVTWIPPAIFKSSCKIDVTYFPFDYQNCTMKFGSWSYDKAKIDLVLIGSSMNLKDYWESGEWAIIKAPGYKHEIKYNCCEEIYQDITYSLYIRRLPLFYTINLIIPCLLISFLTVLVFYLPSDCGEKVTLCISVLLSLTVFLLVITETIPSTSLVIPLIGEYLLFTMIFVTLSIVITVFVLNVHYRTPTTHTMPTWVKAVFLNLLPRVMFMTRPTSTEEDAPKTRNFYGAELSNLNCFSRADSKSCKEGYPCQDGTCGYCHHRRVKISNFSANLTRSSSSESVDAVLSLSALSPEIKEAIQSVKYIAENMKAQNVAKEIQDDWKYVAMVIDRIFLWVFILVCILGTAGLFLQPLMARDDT
T5 sequence (Q8R493 21-495): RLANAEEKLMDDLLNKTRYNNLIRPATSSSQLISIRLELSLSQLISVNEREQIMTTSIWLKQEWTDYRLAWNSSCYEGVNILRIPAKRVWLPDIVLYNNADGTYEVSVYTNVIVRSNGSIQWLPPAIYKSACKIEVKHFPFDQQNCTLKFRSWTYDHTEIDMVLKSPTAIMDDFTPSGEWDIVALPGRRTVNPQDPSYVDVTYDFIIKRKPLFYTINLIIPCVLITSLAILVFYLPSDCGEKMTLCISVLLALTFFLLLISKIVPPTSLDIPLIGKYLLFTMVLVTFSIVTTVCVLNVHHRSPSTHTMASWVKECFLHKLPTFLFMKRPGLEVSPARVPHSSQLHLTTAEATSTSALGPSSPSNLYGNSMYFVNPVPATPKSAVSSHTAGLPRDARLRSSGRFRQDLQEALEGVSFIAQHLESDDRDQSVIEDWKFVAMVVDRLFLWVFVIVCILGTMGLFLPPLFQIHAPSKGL

`C1=C(/c2cncnc2)CCCNCC/1` [TC299423, (E)-5-(pyrimidin-5-yl)-1,2,3,4,7,8-hexahydroazocine] was tested, and the Hit [1] was “TRUE (TC299423 inhibited >50% of the reference radioligand for two sites)”, the Inhibition ([1]; [3H]Glibenclamide) was 52.12% and the Hit [2] was “TRUE (TC299423 inhibited >50% of the reference radioligand for two sites)”. For the same compound, the Inhibition ([2]; [3H]Epibatidine) was 93.33%, the Hit (Adenosine, A2A (h)) was “FALSE” and the Inhibition (Adenosine, A2A (h); [3H]CGS 21680) was 1.51%. The “Responding for nicotine infusions vs vehicle” value (male Wistar rats) was “no statistically significant changes”, the “86Rb+ efflux Efficacy” value ([3]; Cortex) was 94 ± 7% and the EC50 ([3]; Cortex, read-out: 86Rb+ efflux EC50) was 2000 ± 2000 nM. For the same compound, the “86Rb+ efflux Efficacy” value ([3]; Thalamus) was 139 ± 14%, the EC50 ([3]; Thalamus, read-out: 86Rb+ efflux EC50) was 600 ± 100 nM and the EC50 ([3]; thalamic and cortical synaptosomes, read-out: EC50 for the DhβE-sensitive α4β2* nAChRs) was 600 to 2000 nM. For the same compound, the Hit (Endothelin, ET-A (h)) was “FALSE”, the Inhibition (Endothelin, ET-A (h); [125I] Endothelin-1) was 8.93% and the Hit (Adrenergic, Beta 2 (h)) was “FALSE”. For the same compound, the Inhibition (Adrenergic, Beta 2 (h); [125]I-Iodo-cyanopindolol) was -8.25%, the Hit (Dopamine, D3) was “FALSE” and the Inhibition (Dopamine, D3; [3H]7-OH-DPAT) was -16.93%. For the same compound, the Hit [4] was “FALSE”, the Inhibition ([4]; substrate Fluorescent cyclic GMP) was -3.00% and the Hit (Serotonin, 5HT5A (h)) was “FALSE”. The Inhibition (Serotonin, 5HT5A (h); [3H]-LSD) was 1.24%, the Hit (GABA A, Agonist Site) was “FALSE” and the Inhibition (GABA A, Agonist Site; [3H]GABA) was -2.66%. The Hit (Adrenergic, Beta 1 (h)) was “FALSE”, the Inhibition (Adrenergic, Beta 1 (h); [125I] (-) Iodocyanopindolol) was 11.21% and the Ki (α3β4* nAChRs) was 18 ± 0.7 nM. The Hit [5] was “FALSE”, the Inhibition ([5]; [3H]Flunitrazepam) was 11.84% and the Hit (Serotonin, 5HT1A (h)) was “FALSE”. The Inhibition (Serotonin, 5HT1A (h); [3H]-8-OH-DPAT) was 17.60%, the Hit [6] was “FALSE” and the Inhibition ([6]; [3H]-NBTI) was 12.86%. For the same compound, the Hit (Bradykinin, BK2) was “FALSE”, the Inhibition (Bradykinin, BK2; [3H]Bradykinin) was 32.29% and the Hit [7] was “FALSE”. The Inhibition ([7]; substrate Fluorescein-labeled peptide) was -1.00%, the Ki (α6β2* nAChRs; α4KO striatal membranes) was 1.4 ± 0.6 nM and the “Difference between Ki ([125I]epibatidine) and EC50 ([3H]dopamine release)” value (α6β2* nAChRs; α6β2* nAChRs) was about 20 fold. The Hit (Histamine, H1) was “FALSE”, the Inhibition (Histamine, H1; [3H]Pyrilamine) was 15.56% and the Hit (Serotonin, 5HT7 (h)) was “FALSE”. The Inhibition (Serotonin, 5HT7 (h); [3H]LSD) was -2.10%, the Hit (Muscarinic, M2 (h)) was “FALSE” and the Inhibition (Muscarinic, M2 (h); [3H]Scopolamine, N-Methyl) was -3.18%. The Hit (Adenosine, A1) was “FALSE” and the Inhibition (Adenosine, A1; [3H]CPX) was 7.85%.
